From patent publication US9499550B2 (BRISTOL-MYERS SQUIBB COMPANY, priority 2012, dated 2016)
Like-named read-outs stand apart in the source and are kept apart here.

Columns and labels:
[1] = system: HCV genotype 1b (Con1) replicon in HUH-7 cells; experiment: HCV replicon luciferase reporter assay, genotype 1b; assay type: cell-based; conditions: Hepatitis C virus, Huh-7, 72 h, HCV genotype 1b replicon luciferase, 3 days incubation
How it was run: (§1)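 Replicon inhibition for both genotypes was measured as Renilla luciferase signal (EnduRen, 7.5 μM final, 2 h) after 3-day, 37° C exposure of replicon-bearing HUH-7 cells in 4% FCS DMEM, 0.5% DMSO. The 1b construct carries S1179I; the 1a H77 construct carries P1496L and S2204I. Twenty-point, 3-fold dilutions were fitted four-parametrically for EC50, and CC50 was taken from multiplexed Cell Titer-Blue.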

[2] = system: HCV genotype 1a (H77 strain) replicon in HUH-7 cells; experiment: HCV replicon luciferase reporter assay, genotype 1a; assay type: cell-based; conditions: Hepatitis C virus, Huh-7, 72 h, HCV genotype 1a replicon luciferase, 3 days incubation
How it was run: as §1

Compound | EC50 ([1]; read-out: LE_1b (EC50, range)) | EC50 ([2]; read-out: LE_1a (EC50, range)) | EC50 ([1]; read-out: LE_1b (EC50)) | EC50 ([2]; read-out: LE_1a (EC50))
CC[C@@H]1C[C@@H](C)CC/C=C\[C@@H]2C[C@@]2(C(=O)NS(=O)(=O)C2CC2)NC(=O)[C@@H]2C[C@@H](Oc3nccc4c5c(ccc34)N(C)CCO5)CN2C(=O)[C@H]1NC(=O)OC(C)(C)C(F)(F)F [Compound 5309, 1,1,1-trifluoro-2-methylpropan-2-yl((2R,6S,7R,9S,13aS,14aR,16aS,Z)-14a-((cyclopropylsulfonyl)carbamoyl)-7-ethyl-9-methyl-2-((4-methyl-3,4-dihydro-2H-[1,4]oxazino[2,3-f]isoquinolin-7-yl)oxy)-5,16-dioxo-1,2,3,5,6,7,8,9,10,11,13a,14,14a,15,16,16a-hexadecahydrocyclopropa[e]pyrrolo[1,2-a][1,4]diazacyclopentadecin-6-yl)carbamate] | < 5.46 nM | 4.82 to 103 nM |  | 
CC[C@@H]1C[C@H](C)CC/C=C\[C@@H]2C[C@@]2(C(=O)NS(=O)(=O)C2CC2)NC(=O)[C@@H]2C[C@@H](Oc3nccc4c5c(ccc34)N(C)CCO5)CN2C(=O)[C@H]1NC(=O)OC(C)(C)C(F)(F)F [Compound 5310, 1,1,1-trifluoro-2-methylpropan-2-yl((2R,6S,7R,9R,13aS,14aR,16aS,Z)-14a-((cyclopropylsulfonyl)carbamoyl)-7-ethyl-9-methyl-2-((4-methyl-3,4-dihydro-2H-[1,4]oxazino[2,3-f]isoquinolin-7-yl)oxy)-5,16-dioxo-1,2,3,5,6,7,8,9,10,11,13a,14,14a,15,16,16a-hexadecahydrocyclopropa[e]pyrrolo[1,2-a][1,4]diazacyclopentadecin-6-yl)carbamate] | < 5.46 nM | < 5.46 nM |  | 
[2H]C([2H])([2H])C(OC(=O)N[C@@H]1C(=O)N2C[C@H](Oc3nccc4c5c(ccc34)N(C)CCO5)C[C@H]2C(=O)N[C@]2(C(=O)NS(=O)(=O)C3CC3)C[C@H]2/C=C\CC[C@H](C)C[C@H]1CC)(C([2H])([2H])[2H])C(F)(F)F [Compound 5311, 1,1,1,3,3,3-hexadeutero-2-(trifluoromethyl)propan-2-yl((2R,6S,7R,9S,13aS,14aR,16aS,Z)-14a-((cyclopropylsulfonyl)carbamoyl)-7-ethyl-9-methyl-2-((4-methyl-3,4-dihydro-2H-[1,4]oxazino[2,3-f]isoquinolin-7-yl)oxy)-5,16-dioxo-1,2,3,5,6,7,8,9,10,11,13a,14,14a,15,16,16a-hexadecahydrocyclopropa[e]pyrrolo[1,2-a][1,4]diazacyclopentadecin-6-yl)carbamate] | < 5.46 nM | < 5.46 nM |  | 
[2H]C([2H])([2H])C(OC(=O)N[C@@H]1C(=O)N2C[C@H](Oc3nccc4c5c(ccc34)N(C)CCO5)C[C@H]2C(=O)N[C@]2(C(=O)NS(=O)(=O)C3CC3)C[C@H]2/C=C\CC[C@@H](C)C[C@H]1CC)(C([2H])([2H])[2H])C(F)(F)F [Compound 5312, 1,1,1,3,3,3-hexadeutero-2-(trifluoromethyl)propan-2-yl((2R,6S,7R,9R,13aS,14aR,16aS,Z)-14a-((cyclopropylsulfonyl)carbamoyl)-7-ethyl-9-methyl-2-((4-methyl-3,4-dihydro-2H-[1,4]oxazino[2,3-f]isoquinolin-7-yl)oxy)-5,16-dioxo-1,2,3,5,6,7,8,9,10,11,13a,14,14a,15,16,16a-hexadecahydrocyclopropa[e]pyrrolo[1,2-a][1,4]diazacyclopentadecin-6-yl)carbamate] | < 5.46 nM | < 5.46 nM |  | 
CC[C@@H]1C[C@@H](C)CC/C=C\[C@@H]2C[C@@]2(C(=O)NS(=O)(=O)C2CC2)NC(=O)[C@@H]2C[C@@H](Oc3nccc4c5c(ccc34)N(C)CCO5)CN2C(=O)[C@H]1NC(=O)O[C@@H]1C[C@@H]2C[C@@H]2C1 [Compound 5313, (1R,3r,5 S)-bicyclo[3.1.0]hexan-3-yl((2R,6S,7R,9S,13aS,14aR,16aS,Z)-14a-((cyclopropylsulfonyl)carbamoyl)-7-ethyl-9-methyl-2-((4-methyl-3,4-dihydro-2H-[1,4]oxazino[2,3-f]isoquinolin-7-yl)oxy)-5,16-dioxo-1,2,3,5,6,7,8,9,10,11,13a,14,14a,15,16,16a-hexadecahydrocyclopropa[e]pyrrolo[1,2-a][1,4]diazacyclopentadecin-6-yl)carbamate] | < 5.46 nM | < 5.46 nM |  | 
CC[C@@H]1C[C@H](C)CC/C=C\[C@@H]2C[C@@]2(C(=O)NS(=O)(=O)C2CC2)NC(=O)[C@@H]2C[C@@H](Oc3nccc4c5c(ccc34)N(C)CCO5)CN2C(=O)[C@H]1NC(=O)O[C@@H]1C[C@@H]2C[C@@H]2C1 [Compound 5314, (1R,3r,5S)-bicyclo[3.1.0]hexan-3-yl((2R,6S,7R,9R,13aS,14aR,16aS,Z)-14a-((cyclopropylsulfonyl)carbamoyl)-7-ethyl-9-methyl-2-((4-methyl-3,4-dihydro-2H-[1,4]oxazino[2,3-f]isoquinolin-7-yl)oxy)-5,16-dioxo-1,2,3,5,6,7,8,9,10,11,13a,14,14a,15,16,16a-hexadecahydrocyclopropa[e]pyrrolo[1,2-a][1,4]diazacyclopentadecin-6-yl)carbamate] | < 5.46 nM | < 5.46 nM | 1.06 nM | 1.59 nM
CC[C@@H]1C[C@@H](C)CC/C=C\[C@@H]2C[C@@]2(C(=O)NS(=O)(=O)C2CC2)NC(=O)[C@@H]2C[C@@H](Oc3nccc4c5c(ccc34)N(C)CCO5)CN2C(=O)[C@H]1NC(=O)NC(C)(C)C [Compound 5315, (2R,6S,7R,9S,13aS,14aR,16aS,Z)-6-(3-(tert-butyl)ureido)-N-(cyclopropylsulfonyl)-7-ethyl-9-methyl-2-((4-methyl-3,4-dihydro-2H-[1,4]oxazino[2,3-f]isoquinolin-7-yl)oxy)-5,16-dioxo-1,2,3,5,6,7,8,9,10,11,13a,14,14a,15,16,16a-hexadecahydrocyclopropa[e]pyrrolo[1,2-a][1,4]diazacyclopentadecine-14a-carboxamide] | 4.82 to 103 nM | 4.82 to 103 nM |  | 
CC[C@@H]1C[C@H](C)CC/C=C\[C@@H]2C[C@@]2(C(=O)NS(=O)(=O)C2CC2)NC(=O)[C@@H]2C[C@@H](Oc3nccc4c5c(ccc34)N(C)CCO5)CN2C(=O)[C@H]1NC(=O)NC(C)(C)C [Compound 5316, (2R,6S,7R,9R,13aS,14aR,16aS,Z)-6-(3-(tert-butyl)ureido)-N-(cyclopropylsulfonyl)-7-ethyl-9-methyl-2-((4-methyl-3,4-dihydro-2H-[1,4]oxazino[2,3-f]isoquinolin-7-yl)oxy)-5,16-dioxo-1,2,3,5,6,7,8,9,10,11,13a,14,14a,15,16,16a-hexadecahydrocyclopropa[e]pyrrolo[1,2-a][1,4]diazacyclopentadecine-14a-carboxamide] | < 5.46 nM | < 5.46 nM |  | 
CC[C@@H]1C[C@@H](C)CC/C=C\[C@@H]2C[C@@]2(C(=O)NS(=O)(=O)C2CC2)NC(=O)[C@@H]2C[C@@H](Oc3nccc4c5c(ccc34)N(C)CCO5)CN2C(=O)[C@H]1NC(=O)C(=O)N(C)C [Compound 5317, N1-((2R,6S,7R,9S,13aS,14aR,16aS,Z)-14a-((cyclopropylsulfonyl)carbamoyl)-7-ethyl-9-methyl-2-((4-methyl-3,4-dihydro-2H-[1,4]oxazino[2,3-f]isoquinolin-7-yl)oxy)-5,16-dioxo-1,2,3,5,6,7,8,9,10,11,13a,14,14a,15,16,16a-hexadecahydrocyclopropa[e]pyrrolo[1,2-a][1,4]diazacyclopentadecin-6-yl)-N2,N2-dimethyloxalamide] | 4.82 to 103 nM | 4.82 to 103 nM |  | 
